According to patent publication US6703418B2, “Appetite stimulation and induction of weight gain in patients suffering from symptomatic HIV infection” (Unimed Pharmaceuticals, Inc., priority 1991, dated 2004):

Columns and labels:
[1] = Example I: ten symptomatic HIV patients treated with delta-9-tetrahydrocannabinol as dronabinol, weight change; assay type: in vivo, human
Procedure: Soft gelatin capsules were filled with delta-9-tetrahydrocannabinol in sesame oil (dronabinol). Capsules were filled with 2.5 mg delta-9-tetrahydrocannabinol per capsule or 5 mg delta-9-tetrahydrocannabinol per capsule.
Ten symptomatic HIV patients were treated with delta-9-tetrahydrocannabinol. […] The infectious complications which they had represent the spectrum of those usually seen in a symptomatic HIV-infected population.
Most of the patients had received or were on antiviral therapy, primarily zidovudine (azidothymidine). Two had previously received and one was receiving megesterol acetate as well. Patients received delta-9-tetrahydrocannabinol as dronabinol (delta-9-tetrahydrocannabinol in sesame oil in soft gelatin capsules), usually at a dose of 2.5 mg, for one to five months. Treatment continued for most of the patients at the time of this analysis. The dose varied. The patients were instructed to take medication up to four times daily as needed; many took it somewhat less often.
Initially, patients were losing a median of 0.93 kg/mo. On therapy, they gained 0.54 kg/mo. The median difference on versus pre-therapy was 1.92 kg/mo.

[2] = Example II: prospective dose-ranging study of dronabinol in patients with symptomatic HIV infection, weight change and side effects; assay type: in vivo, human
Procedure: In a prospective, dose-ranging study, 23 patients with symptomatic HIV infection were treated with dronabinol at a dose of 2.5 mg twice daily to 5.0 mg three times daily. Of these, 13 completed approximately one month on therapy.
At a dose which appears optimal, seven of eight patients completed one month treatment. […] Most of those patients who did experience side effects found them tolerable. […] The median rate of weight loss prior to therapy was 1.62 kg/mo; on therapy, the median weight gain was 1.56 kg/mo. The median improvement in the rate of weight change was 3.06 kg/mo, or approximately 1.5 lbs/wk.

[3] = oral; cancer chemotherapy patients; crossover; cited from earlier work
[4] = cancer chemotherapy patients; compared with prochlorperazine; cited from earlier work
[5] = children and adolescents 6-19 years of age; cited from earlier work
[6] = advanced cancer patients on chemotherapy, versus those not receiving it; cited from earlier work
[7] = cancer patients, open study; cited from earlier work

CCCCCc1cc(O)c2c(c1)OC(C)(C)[C@@H]1CCC(C)=C[C@@H]21 [delta-9-tetrahydrocannabinol]
number of patients who gained weight ([1]; of ten symptomatic HIV patients): Seven patients gained weight | number of patients with a decrease in weight loss ([1]; of ten symptomatic HIV patients, besides those who gained weight): two others had a decrease in weight loss | median difference in rate of weight change, on versus pre-therapy ([1]; ten symptomatic HIV patients, usually 2.5 mg oral, one to five months): 1.92 kg/mo | median weight gain on therapy ([1]; ten symptomatic HIV patients, usually 2.5 mg oral, up to four times daily as needed, one to five months, pre-therapy median loss 0.93 kg/mo): 0.54 kg/mo | number of patients who gained weight ([2]; all doses, 2.5 mg twice daily to 5.0 mg three times daily, of 13 patients completing about one month on therapy): seven gained weight | side effects ([2]; dose which appears optimal): most patients did not experience side effects | median improvement in the rate of weight change ([2]; dose which appears optimal, converted from kg/mo): approximately 1.5 lbs/wk | number of patients who gained weight ([2]; dose which appears optimal, of seven patients completing one month): five of the seven patients gained weight | median improvement in the rate of weight change ([2]; dose which appears optimal, on therapy versus prior to therapy): 3.06 kg/mo | median weight gain on therapy ([2]; dose which appears optimal, pre-therapy median loss 1.62 kg/mo): 1.56 kg/mo | subjects reporting an increased food intake [3]: 50% | reported hunger [4]: reported feeling more hungry than patients on prochlorperazine | appetite stimulating effect [5]: Results suggestive of an appetite stimulating effect | weight maintenance [6]: maintained their weight better | appetite [7]: appetite increases | rate of weight loss [7]: lessening of the rate of weight loss
